# US4870097A, “Pharmaceutical use of derivatives of tryptophan” (priority 1984, dated 1989)
# Entries after “also recorded” stand apart in the source; their conditions may differ.
# Columns and labels:
# Format in all cases: in vivo, rats
# [1] = system: analgesic activity of DALA; assay: Tail Flick test: increase in the analgesic activity of DALA (i.c.v.); set-up: analgesic activity (Tail Flick), 10' / analgesic activity (Tail Flick), 20' / analgesic activity (Tail Flick), 30' / analgesic activity (Tail Flick), 45' / analgesic activity (Tail Flick), 60' / analgesic activity (Tail Flick), AVERAGE: scale not given here; settings: for analgesic activity (Tail Flick), AVERAGE: average 10'-60'
# Procedure: In order to check one of the possible mechanisms for the action of the compounds of the invention, that is, their possible inhibition of the enzymatic degradation of endogenous enkephalins, the following experiment was carried out:
# A cannula was implanted in the right lateral ventricle of male rats having a weight of 150-200 g (groups of five animals were used) in order to allow the intracerebroventricular (i.c.v.) administration of drugs according to the method of Noble et al (Life Science 6, (1970) 281-291).
# The animals were subsequently treated (i.c.v.) with 3 μg of D-ala-methionine-enkephalinamide (DALA) immediately after an injection (i.c.v.) of the compounds under study at the doses given in Table 4. Analgesia was tested for by the Tail Flick method already mentioned, at the times
# endogenous opiates = assay: Tail Flick Test after transcutaneous shock: analgesic activity of endogenous opiates; settings: for Average latency, 5': 5' after electric shock; for Average latency, 10': 10' after electric shock; for Average latency, 15': 15' after electric shock
# Procedure: Influence of several of the compounds of the invention on the analgesic activity of endogenous opiates released under transcutaneous shock in rats measured by the Tail Flick Test
# The method is that described by Lewis et al. (J. Neurosc. 1, 358 (1981). Male rats having a weight of about 200 g, which have not been fasting, are used.
# The animals are stressed by the application to the front leg of a 60 Hz-2.5 mA current in pulses of a duration of one second every five seconds for 20 minutes.
# This stress regime causes the release of endogenous opiates.
# [2] = system: analgesic activity of morphine; assay: Tail Flick Test: increase in the analgesic effect of morphine
# How it was run: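 Male non-fasted rats, 150-200 g; heat source (75 °C) on tail, latency to tail movement timed, 8 s cut-off. Measured before and 10, 20, 30, 45, 60, 90 min after analgesic dosing; percentage variation per animal, averaged over groups of five.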
# [3] = system: tolerance induced by morphine; assay: Antagonism to the development of tolerance to repeated administration of morphine HCl (tail flick)
# Procedure: Several of the compounds of the invention were examined to determine any capacity to antagonise the development of tolerance induced by morphine. Groups of six male rats having a weight of about 200-250 were used.
# At intervals of 24 hours from the first treatment (time 0), each animal (except for the control group treated with a physiological solution) received 3 mg/kg of morphine hydrochloride i.p. together with 3 mg/kg i.p. of the compounds indicated (with the exception of the group treated solely with morphine).
# The determination of the threshold for the pain stimulus was effected at 15°, 30', 45' and 60' intervals from the treatment by the "tail flick" test.
# [4] = system: activity of analgesic drugs; assay: Hot plate test: potentiation of analgesic drugs
# Procedure: The method is that described by Eddy et al. (J. Pharmac. Exp. Ther. 107, 385 (1953)).
# Groups of five male rats having a weight of about 150 g and which have not been fasting are used.
# The animals are placed on a metal plate which is on the bottom of a transparent cylinder heated to 55°±1° C. by an azeotropic boiling mixture (1:1 acetone-ethyl formate). The time which passes between the moment at which the animal is placed on the hot plate and the moment at which it licks its feet or tries to jump out of the cylinder is defined as the reaction time. The control reaction time is measured 10 and 5 minutes before the administration of the drugs and 10, 20, 30, 45, 60, 90 minutes afterwards. The animals are left on the plate for a maximum period of 30 seconds.
# The response to the administration of the product is considered positive if at least a doubling of the normal reaction time is seen. The results obtained are given in Table 2 which records the groups treated, the dose administered and the stay times on the plate expressed as the number of positive responses over the number treated.
# [5] = days 0-7, 3 mg/kg + morphine (row Morphine: alone)
# [6] = acetylsalicylic acid 100 + C. 26 5 mg/kg i.p.
# [7] = acetylsalicylic acid 100 + C. 26 10 mg/kg i.p.
# [8] = acetylsalicylic acid 100 + C. 26 20 mg/kg i.p.
# [9] = propoxyphene 15 + C. 26 1 mg/kg i.p.
# [10] = propoxyphene 15 + C. 26 2.5 mg/kg i.p.
# [11] = propoxyphene 15 + C. 26 5.0 mg/kg i.p.
smiles,measurement,setting,value
CCCCCCc1ccc(C(=O)N[C@@H](Cc2c[nH]c3ccccc23)C(=O)O)cc1 [Compound 26],"analgesic activity (Tail Flick), 10'",[1]; 10(D) + 0.001 mg/kg (ICV),62.44
same,"analgesic activity (Tail Flick), 20'",[1]; 10(D) + 0.001 mg/kg (ICV),73.94
same,"analgesic activity (Tail Flick), 30'",[1]; 10(D) + 0.001 mg/kg (ICV),67.94
same,"analgesic activity (Tail Flick), 45'",[1]; 10(D) + 0.001 mg/kg (ICV),40.38
same,"analgesic activity (Tail Flick), 60'",[1]; 10(D) + 0.001 mg/kg (ICV),34.06
same,"analgesic activity (Tail Flick), AVERAGE",[1]; 10(D) + 0.001 mg/kg (ICV),55.75 ± 7.84
same,"analgesic activity (Tail Flick), 10'",[1]; 10(D) + 0.01 mg/kg (ICV),80.54
same,"analgesic activity (Tail Flick), 20'",[1]; 10(D) + 0.01 mg/kg (ICV),82.66
same,"analgesic activity (Tail Flick), 30'",[1]; 10(D) + 0.01 mg/kg (ICV),70.42
same,"analgesic activity (Tail Flick), 45'",[1]; 10(D) + 0.01 mg/kg (ICV),45.9
same,"analgesic activity (Tail Flick), 60'",[1]; 10(D) + 0.01 mg/kg (ICV),68.9
same,"analgesic activity (Tail Flick), AVERAGE",[1]; 10(D) + 0.01 mg/kg (ICV),69.68 ± 6.53
same,"Average latency, 5'",endogenous opiates; 0.5 mg/kg i.v. + stress,6.62 ± 0.72 s
same,"Average latency, 5'",endogenous opiates; 2 mg/kg i.v. + stress,11.0 ± 0.65 s
same,"Average latency, 10'",endogenous opiates; 0.5 mg/kg i.v. + stress,6.1 ± 0.61 sec.
same,"Average latency, 10'",endogenous opiates; 2 mg/kg i.v. + stress,9.28 ± 0.78 sec.
same,"Average latency, 15'",endogenous opiates; 0.5 mg/kg i.v. + stress,5.52 ± 0.9 s
same,"Average latency, 15'",endogenous opiates; 2 mg/kg i.v. + stress,6.84 ± 0.73 s
same,"percentage variation in the latency of the pain sensation, 10'","[2]; 10', compound 10 mg/kg i.p. + morphine 2 mg/kg (row Morphine: alone), ± S.E.",100.0 ± 0.0%
same,"percentage variation in the latency of the pain sensation, 20'","[2]; 20', compound 10 mg/kg i.p. + morphine 2 mg/kg (row Morphine: alone), ± S.E.",87.6 ± 9.2%
same,"percentage variation in the latency of the pain sensation, 30'","[2]; 30', compound 10 mg/kg i.p. + morphine 2 mg/kg (row Morphine: alone), ± S.E.",100.0 ± 0.0%
same,"percentage variation in the latency of the pain sensation, 45'","[2]; 45', compound 10 mg/kg i.p. + morphine 2 mg/kg (row Morphine: alone), ± S.E.",100.0 ± 0.0%
same,"percentage variation in the latency of the pain sensation, 60'","[2]; 60', compound 10 mg/kg i.p. + morphine 2 mg/kg (row Morphine: alone), ± S.E.",100.0 ± 0.0%
same,"percentage variation in the latency of the pain sensation, 90'","[2]; 90', compound 10 mg/kg i.p. + morphine 2 mg/kg (row Morphine: alone), ± S.E.",84.5 ± 9.8%
same,M(10'-90') average percentage variation,"[2]; mean 10'-90', compound 10 mg/kg i.p. + morphine 2 mg/kg (row Morphine: alone)",96.3%
same,Potency ratio relative to morphine alone,"[2]; rat, in vivo",3.2
same,"percentage variation in the latency time, day 0","[3]; day 0, 3 mg/kg i.p. + morphine HCl 3 mg/kg i.p. (row Morphine: alone)",74.14%
same,"percentage variation in the latency time, day 1","[3]; day 1, 3 mg/kg i.p. + morphine HCl 3 mg/kg i.p. (row Morphine: alone)",45.73%
same,"percentage variation in the latency time, day 2","[3]; day 2, 3 mg/kg i.p. + morphine HCl 3 mg/kg i.p. (row Morphine: alone)",59.5%
same,"percentage variation in the latency time, day 3","[3]; day 3, 3 mg/kg i.p. + morphine HCl 3 mg/kg i.p. (row Morphine: alone)",51.52%
same,"percentage variation in the latency time, day 4","[3]; day 4, 3 mg/kg i.p. + morphine HCl 3 mg/kg i.p. (row Morphine: alone)",43.40%
same,"percentage variation in the latency time, day 5","[3]; day 5, 3 mg/kg i.p. + morphine HCl 3 mg/kg i.p. (row Morphine: alone)",37.60%
same,"percentage variation in the latency time, day 6","[3]; day 6, 3 mg/kg i.p. + morphine HCl 3 mg/kg i.p. (row Morphine: alone)",21.43%
same,"percentage variation in the latency time, day 7","[3]; day 7, 3 mg/kg i.p. + morphine HCl 3 mg/kg i.p. (row Morphine: alone)",29.75%
same,Area subtended (1),[3]; [5],366.7 Effect-Day
same,regression line % Effect versus Day,[3]; [5],% Effect = - 6.02 Day + 66.5
same,Area 1 / Area Morphine,"[3]; days 0-7, 3 mg/kg + morphine, ratio to morphine alone",2.61
same,Positive Total X/25,[4]; [6],15
same,"positive responses over the number treated, 10'",[4]; [6],3/5
same,"positive responses over the number treated, 20'",[4]; [6],2/5
same,"positive responses over the number treated, 30'",[4]; [6],4/5
same,"positive responses over the number treated, 45'",[4]; [6],4/5
same,"positive responses over the number treated, 60'",[4]; [6],2/5
same,Positive Total X/25,[4]; [7],21
same,"positive responses over the number treated, 10'",[4]; [7],5/5
same,"positive responses over the number treated, 20'",[4]; [7],4/5
same,"positive responses over the number treated, 30'",[4]; [7],5/5
same,"positive responses over the number treated, 45'",[4]; [7],4/5
same,"positive responses over the number treated, 60'",[4]; [7],3/5
same,Positive Total X/25,[4]; [8],23
same,"positive responses over the number treated, 10'",[4]; [8],4/5
same,"positive responses over the number treated, 20'",[4]; [8],5/5
same,"positive responses over the number treated, 30'",[4]; [8],5/5
same,"positive responses over the number treated, 45'",[4]; [8],5/5
same,"positive responses over the number treated, 60'",[4]; [8],4/5
same,Positive Total X/25,[4]; [9],15
same,"positive responses over the number treated, 10'",[4]; [9],2/5
same,"positive responses over the number treated, 20'",[4]; [9],3/5
same,"positive responses over the number treated, 30'",[4]; [9],4/5
same,"positive responses over the number treated, 45'",[4]; [9],3/5
same,"positive responses over the number treated, 60'",[4]; [9],3/5
same,Positive Total X/25,[4]; [10],20
same,"positive responses over the number treated, 10'",[4]; [10],3/5
same,"positive responses over the number treated, 20'",[4]; [10],5/5
same,"positive responses over the number treated, 30'",[4]; [10],5/5
same,"positive responses over the number treated, 45'",[4]; [10],4/5
same,"positive responses over the number treated, 60'",[4]; [10],3/5
same,Positive Total X/25,[4]; [11],24
same,"positive responses over the number treated, 10'",[4]; [11],4/5
same,"positive responses over the number treated, 20'",[4]; [11],5/5
same,"positive responses over the number treated, 30'",[4]; [11],5/5
same,"positive responses over the number treated, 45'",[4]; [11],5/5
same,"positive responses over the number treated, 60'",[4]; [11],5/5
same,analgesic activity of propoxyphene (in words),"[4]; with propoxyphene, 2.5 mg/kg i.p. (double), 5 mg/kg i.p. (maximum effect)",at least double the analgesic activity of propoxyphene; also recorded: a maximum effect
